Measurements published in PubChem BioAssay AID330 (DTP/NCI, 2004).
Several values for one entry are separate records, joined by “and”; a condition that tells them apart may be missing. Equal values may be shown once. Toxic doses and inconclusive results are not listed. Rule for the calls: active = survival T/C of 150% or more; inactive = T/C below 125% in these data.

System: P388 leukemia ip, CD2F1 mice, survival T/C
Test: NCI In Vivo Anticancer Drug Screen. Data for tumor model P388 Leukemia (intraperitoneal) in CD2F1 (CDF1) mice
Conditions: endpoint: median survival time, higher = longer survival
How it was run: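 Mice carrying the transplanted tumor received test compound or vehicle. Survival was recorded in each group, and the value is the treated-group measurement divided by that of the vehicle-treated control group.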

[1] = dose: 50.0 mg/kg/injection, schedule: Q01DX005 (ip), vehicle: saline with Tween-80
[2] = dose: 60.0 mg/kg/injection, schedule: Q01DX005 (ip), vehicle: saline with Tween-80
[3] = dose: 120.0 mg/kg/injection, schedule: Q01DX005 (ip), vehicle: saline with Tween-80
[4] = dose: 100.0 mg/kg/injection, schedule: Q01DX005 (ip), vehicle: saline with Tween-80
[5] = dose: 200.0 mg/kg/injection, schedule: Q01DX005 (ip), vehicle: saline with Tween-80
[6] = dose: 50.0 mg/kg/injection, schedule: Q01DX009 (ip), vehicle: Klucel (hydroxypropylcellulose) (HPC)
[7] = dose: 100.0 mg/kg/injection, schedule: Q01DX009 (ip), vehicle: Klucel (hydroxypropylcellulose) (HPC)
[8] = dose: 200.0 mg/kg/injection, schedule: Q01DX009 (ip), vehicle: Klucel (hydroxypropylcellulose) (HPC)

Measured: T/C

O=C(CCCN1CCC(C(O)c2ccc(F)cc2)CC1)c1ccc(F)cc1 (stereo not given)
inactive: dose: 3.0 mg/kg/injection, schedule: Q01DX005 (ip), vehicle: saline with Tween-80 101 % of control | dose: 3.13 mg/kg/injection, schedule: Q01DX009 (ip), vehicle: saline with Tween-80 98 % of control | dose: 6.0 mg/kg/injection, schedule: Q01DX005 (ip), vehicle: saline with Tween-80 104 % of control | dose: 6.25 mg/kg/injection, schedule: Q01DX009 (ip), vehicle: saline with Tween-80 92 % of control | dose: 12.0 mg/kg/injection, schedule: Q01DX005 (ip), vehicle: saline with Tween-80 98 % of control | dose: 12.5 mg/kg/injection, schedule: Q01DX009 (ip), vehicle: saline with Tween-80 103 % of control | dose: 25.0 mg/kg/injection, schedule: Q01DX009 (ip), vehicle: saline with Tween-80 107 % of control | [1] 114 % of control | dose: 50.0 mg/kg/injection, schedule: Q01DX009 (ip), vehicle: saline with Tween-80 100 % of control | dose: 100.0 mg/kg/injection, schedule: Q01DX009 (ip), vehicle: saline with Tween-80 95 % of control

CCN(Cc1cccc(S(=O)(=O)O)c1)c1ccc(C(=C2C=CC(=[N+](CC)Cc3cccc(S(=O)(=O)O)c3)C=C2)c2ccc(O)cc2S(=O)(=O)O)cc1
inactive: [2] 107 % of control | [3] 98 % of control | dose: 240.0 mg/kg/injection, schedule: Q01DX005 (ip), vehicle: saline with Tween-80 107 % of control

CC(C)(C)c1ccc(NC(=O)c2ccccc2N)cc1
inactive: [1] 101 % of control | [4] 97 % of control | [5] 92 % of control

CN(C)C1=CC(N(C)C)=NC12C(=N)N(C)C(=O)N(C)C2=O (stereo not given)
inactive: dose: 50.0 mg/kg/injection, schedule: Q01DX005 (ip), vehicle: water 104 % of control | dose: 100.0 mg/kg/injection, schedule: Q01DX005 (ip), vehicle: water 104 % of control | dose: 200.0 mg/kg/injection, schedule: Q01DX005 (ip), vehicle: water 108 % of control

CC(=O)N(Cc1ccccc1)c1nccs1
inactive: [1] 104 % of control | [4] 99 % of control | [5] 90 % of control

NC(Cc1ccc(OC(c2ccccc2)(c2ccccc2)c2ccccc2)cc1)C(=O)O (stereo not given)
inactive: dose: 50.0 mg/kg/injection, schedule: Q01DX009 (ip), vehicle: saline 101 % of control | dose: 100.0 mg/kg/injection, schedule: Q01DX009 (ip), vehicle: saline 96 % of control | dose: 200.0 mg/kg/injection, schedule: Q01DX009 (ip), vehicle: saline 90 % of control

O=C1CCC(C(Sc2ccccc2)(Sc2ccccc2)Sc2ccccc2)C1 (stereo not given)
inactive: [6] 97 % of control | [7] 90 % of control | [8] 89 % of control

FC(F)(F)c1ccc(C2(c3ccccc3)C=C(c3ccccc3)SC(c3ccccc3)=C2)cc1
inactive: [6] 102 % of control | [7] 94 % of control | [8] 97 % of control

N#C/C(=C\c1ccccc1)CN1CCCCC1
inactive: dose: 100.0 mg/kg/injection, schedule: Q01DX001 (ip), vehicle: saline with Tween-80 110 % of control | dose: 200.0 mg/kg/injection, schedule: Q01DX001 (ip), vehicle: saline with Tween-80 122 % of control

CC(=O)C[C@H](c1ccccc1)c1ccccc1[C@H](C)N(C)C
inactive: [2] 106 % of control | [3] 104 % of control

C=C1C(=O)OC2CC(C)C3OC3C(=O)C(C)(O)C(O)C(O)C12 (stereo not given) (tested in a mixture with another compound)
inactive: dose: 6.25 mg/kg/injection, schedule: Q01DX009 (ip), vehicle: Klucel (hydroxypropylcellulose) (HPC) 104 % of control | dose: 12.5 mg/kg/injection, schedule: Q01DX009 (ip), vehicle: Klucel (hydroxypropylcellulose) (HPC) 101 % of control and 117 % of control | dose: 25.0 mg/kg/injection, schedule: Q01DX009 (ip), vehicle: Klucel (hydroxypropylcellulose) (HPC) 110 % of control and 123 % of control | [6] 123 % of control | [8] 119 % of control

COc1ccc2c(c1OC)C[N+]1([O-])CCc3cc4c(cc3C1C2)OCO4 (stereo not given)
inactive: dose: 0.63 mg/kg/injection, schedule: Q01DX009 (ip), vehicle: distilled water + Tween-80 91 % of control | dose: 1.25 mg/kg/injection, schedule: Q01DX009 (ip), vehicle: distilled water + Tween-80 92 % of control | dose: 2.5 mg/kg/injection, schedule: Q01DX009 (ip), vehicle: distilled water + Tween-80 92 % of control | dose: 5.0 mg/kg/injection, schedule: Q01DX009 (ip), vehicle: distilled water + Tween-80 90 % of control | dose: 10.0 mg/kg/injection, schedule: Q01DX009 (ip), vehicle: distilled water + Tween-80 97 % of control | dose: 20.0 mg/kg/injection, schedule: Q01DX009 (ip), vehicle: distilled water + Tween-80 106 % of control

COc1ccc(CC(=O)c2ccc3c(c2O)C=CC(C)(C)O3)cc1OC
inactive: [1] 98 % of control | [4] 99 % of control | [5] 89 % of control

C[N+]1(C)CCOC(O)(c2ccccc2)C1 (stereo not given)
inactive: dose: 6.25 mg/kg/injection, schedule: Q01DX009 (ip), vehicle: saline 104 % of control | dose: 12.5 mg/kg/injection, schedule: Q01DX009 (ip), vehicle: saline 98 % of control | dose: 25.0 mg/kg/injection, schedule: Q01DX009 (ip), vehicle: saline 100 % of control

COc1ccc2c(c1)OC(C)(C)C(c1ccccc1)=C2c1ccc2c(c1)NCCO2
inactive: dose: 15.0 mg/kg/injection, schedule: Q01DX005 (ip), vehicle: saline with Tween-80 99 % of control | dose: 30.0 mg/kg/injection, schedule: Q01DX005 (ip), vehicle: saline with Tween-80 91 % of control | [2] 91 % of control
